Patent US12084472B2 (Ardelyx, Inc., priority 2015, dated 2024)

The compounds below were run against T1, human TGR5 (Homo sapiens, UniProt Q8TDU6) (assay: Cell-based TGR5 assay (cAMP generation, HTRF)). Conditions: HEK293 cells stably transfected with human TGR5; cAMP by HTRF; 30 minutes at 37° C.; read-out: pEC50 Human TGR5 (converted).
T1 construct: expressed in transfected cells; host or cells: HEK293
T1 sequence (Q8TDU6 1-330): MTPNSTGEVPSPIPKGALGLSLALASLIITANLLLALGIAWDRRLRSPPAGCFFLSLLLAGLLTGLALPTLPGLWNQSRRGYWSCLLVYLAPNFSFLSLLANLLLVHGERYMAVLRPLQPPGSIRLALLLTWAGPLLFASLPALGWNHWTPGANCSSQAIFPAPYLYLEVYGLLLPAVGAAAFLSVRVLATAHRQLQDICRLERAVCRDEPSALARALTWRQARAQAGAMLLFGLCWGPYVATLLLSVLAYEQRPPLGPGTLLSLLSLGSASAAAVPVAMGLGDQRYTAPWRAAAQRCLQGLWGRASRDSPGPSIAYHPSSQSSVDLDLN
Method in brief: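 Read-out was HTRF detection of cAMP, converted to concentration via a standard curve and fitted (3-parameter logistic) for pEC50 and maximal response. Agonist stimulation used HEK293 cells stably transfected with human TGR5, incubated 30 min at 37° C in IBMX-containing buffer at 0.05 nM to 10 μM compound.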

| Compound | EC50 [nM] |
| --- | --- |
| CS(=O)(=O)NCCCN(CCCCSc1ccc(Cl)c(CNC2(c3cnccc3-c3ccccc3OC3CC3)CC2)c1)C(=O)[C@@H](O)[C@@H](O)[C@H](O)[C@@H](O)CO [Compound I-591, (2S,3S,4R,5S)-N-[4-({4-chloro-3-[({1-[4-(2-cyclopropoxyphenyl)pyridin-3-yl]cyclopropyl}amino)methyl]phenyl}sulfanyl)butyl]-2,3,4,5,6-pentahydroxy-N-(3-methanesulfonamidopropyl) hexanamide] | 126 to 1000 |
| O=C(NC[C@H](O)[C@@H](O)[C@H](O)[C@H](O)CO)N[C@H]1CC[C@@H](NS(=O)(=O)c2ccc(Cl)c(COC3(c4cnccc4-c4ccccc4OC4CC4)CC3)c2)CC1 [Compound I-419, 3-[(2S,3R,4R,5R)-2,3,4,5,6-pentahydroxyhexyl]-1-[(1s,4s)-4-[4-chloro-3-({1-[4-(2-cyclopropoxyphenyl)pyridin-3-yl]cyclopropoxy}methyl)benzenesulfonamido]cyclohexyl]urea] | < 100 |
| COc1c(F)cc(CNC2(c3cnccc3-c3ccccc3OC3CC3)CC2)c(C)c1Cl [Compound I-36, N-[(3-chloro-5-fluoro-4-methoxy-2-methylphenyl)methyl]-1-[4-(2-cyclopropoxyphenyl)pyridin-3-yl]cyclopropan-1-amine] | 126 to 1000 |
| CCN(CCOCCNC(=O)N[C@@H](CO)[C@@H](O)[C@H](O)[C@H](O)CO)S(=O)(=O)c1ccc(Cl)c(COC2(c3cnccc3-c3ccccc3OC3CC3)CC2)c1 [Compound I-415, 1-(2-{2-[N-ethyl4-chloro-3-({1-[4-(2-cyclopropoxyphenyl)pyridin-3-yl]cyclopropoxy}methyl)benzenesulfonamido]ethoxy}ethyl)-3-[(2S,3R,4S,5R)-1,3,4,5,6-pentahydroxyhexan-2-yl]urea] | < 100 |
| O=C(NCCOCCSc1ccc(Cl)c(COC2(c3cnccc3-c3ccccc3OC3CC3)CC2)c1)N[C@@H](CO)[C@@H](O)[C@H](O)[C@H](O)CO [Compound I-637, 1-[2-(2-{[4-chloro-3-({1-[4-(2-cyclopropoxyphenyl)pyridin-3-yl]cyclopropoxy}methyl)phenyl]sulfanyl}ethoxy)ethyl]-3-[(2S,3R,4S,5R)-1,3,4,5,6-pentahydroxyhexan-2-yl]urea] | < 100 |
| CC(CCCC(=O)N1CCC(NC[C@H](O)[C@@H](O)[C@H](O)[C@H](O)C(=O)O)CC1)c1ccc(Cl)c(CNC2(c3cnccc3-c3ccccc3OC3CC3)CC2)c1 (stereo partly drawn) [Compound I-318, (2S,3S,4R,5S)-6-{[1-(5-{4-chloro-3-[({1-[4-(2-cyclopropoxyphenyl)pyridin-3-yl]cyclopropyl}amino)methyl]phenyl}hexanoyl)piperidin-4-yl]amino}-2,3,4,5-tetrahydroxyhexanoic acid] | < 100 |
| CN(C[C@H](O)[C@@H](O)[C@H](O)[C@H](O)CO)C(=O)CC1(CSc2ccc(Cl)c(COC3(c4cnccc4-c4ccccc4OC4CC4)CC3)c2)CC1 [Compound I-679, 2-[1-({[4-chloro-3-({1-[4-(2-cyclopropoxyphenyl)pyridin-3-yl]cyclopropoxy}methyl)phenyl]sulfanyl}methyl)cyclopropyl]-N-methyl-N-[(2S,3R,4R,5R)-2,3,4,5,6-pentahydroxyhexyl]acetamide] | < 100 |
| O=C(CCCCc1cc(Cl)c(COC2(c3cnccc3-c3ccccc3OC3CC3)CC2)cc1Cl)NCCN1CCN(CC(=O)NC[C@H](O)[C@@H](O)[C@H](O)[C@H](O)CO)CC1 [Compound I-99, 5-[2,5-dichloro-4-({1-[4-(2-cyclopropoxyphenyl)pyridin-3-yl]cyclopropoxy}methyl)phenyl]-N-{2-[4-({[(2S,3R,4R,5R)-2,3,4,5,6-pentahydroxyhexyl]carbamoyl}methyl)piperazin-1-yl]ethyl}pentanamide] | < 100 |
| O=C([C@H](O)[C@@H](O)[C@H](O)[C@H](O)CO)N(CCCCCCO)CCCCc1cc(Cl)c(COC2(c3cnccc3-c3ccccc3OC3CC3)CC2)cc1Cl [Compound I-83, (2R,3S,4R,5R)-N-{4-[2,5-dichloro-4-({1-[4-(2-cyclopropoxyphenyl)pyridin-3-yl]cyclopropoxy}methyl)phenyl]butyl}-2,3,4,5,6-pentahydroxy-N-(6-hydroxyhexyl)hexanamide] | < 100 |
| O=C(NCC(O)C(O)C(O)C(O)CO)N[C@@H](CCCNS(=O)(=O)c1ccc(Cl)c(COC2(c3cnccc3-c3ccccc3OC3CC3)CC2)c1)C(=O)O (stereo partly drawn) [Compound I-480, (2S)-5-[4-chloro-3-({1-[4-(2-cyclopropoxyphenyl)pyridin-3-yl]cyclopropoxy}methyl)benzenesulfonamido]-2-{[(2,3,4,5,6-pentahydroxyhexyl)carbamoyl]amino}pentanoic acid] | < 100 |
| O=C([C@@H](O)[C@@H](O)[C@H](O)[C@@H](O)CO)N(CCCCO)CCCSc1ccc(Cl)c(CNC2(c3cnccc3-c3ccccc3OC3CC3)CC2)c1 [Compound I-527, (2S,3S,4R,5S)-N-[3-({4-chloro-3-[({1-[4-(2-cyclopropoxyphenyl)pyridin-3-yl]cyclopropyl}amino)methyl]phenyl}sulfanyl)propyl]-2,3,4,5,6-pentahydroxy-N-(4-hydroxybutyl)hexanamide] | < 100 |
| CC(CCCC(=O)N(CC(=O)N(C)C)C[C@H](O)[C@@H](O)[C@H](O)[C@H](O)CO)c1ccc(Cl)c(CNC2(c3cnccc3-c3ccccc3OC3CC3)CC2)c1 (stereo partly drawn) [Compound I-340, 5-{4-chloro-3-[({1-[4-(2-cyclopropoxyphenyl)pyridin-3-yl]cyclopropyl}amino)methyl]phenyl}-N-[(dimethylcarbamoyl)methyl]-N-[(2S,3R,4R,5R)-2,3,4,5,6-pentahydroxyhexyl]hexanamide] | 126 to 1000 |
| O=C(NCCCCNS(=O)(=O)c1ccc(Cl)c(COC2(c3cnccc3-c3ccccc3OC3CC3)CC2)c1)NC[C@H](O)[C@@H](O)[C@H](O)[C@H](O)CO (stereo in doubt) [Compound I-401, 1-{4-[4-chloro-3-({1-[4-(2-cyclopropoxyphenyl)pyridin-3-yl]cyclopropoxy}methyl)benzenesulfonamido]butyl}-3-[(2S,3R,4R,5R)-2,3,4,5,6-pentahydroxyhexyl]urea] | < 100 |
| CN(C[C@H](O)[C@@H](O)[C@H](O)[C@H](O)CO)C(=O)CCSc1ccc(Cl)c(COC2(c3cnccc3-c3ccccc3OC3CC3)CC2)c1 [Compound I-677, 3-{[4-chloro-3-({1-[4-(2-cyclopropoxyphenyl)pyridin-3-yl]cyclopropoxy}methyl)phenyl]sulfanyl}-N-methyl-N-[(2S,3R,4R,5R)-2,3,4,5,6-pentahydroxyhexyl]propanamide] | < 100 |
| CCNC(=O)[C@@H](N)CCCCNS(=O)(=O)c1ccc(COC2(c3cnccc3-c3ccccc3OC3CC3)CC2)c(Cl)c1 [Compound I-486, (S)-2-amino-6-(3-chloro-4-((1-(4-(2-cyclopropoxyphenyl)pyridin-3-yl)cyclopropoxy)methyl)phenylsulfonamido)-N-ethylhexanamide] | 126 to 1000 |
| O=C(NCCCC(CO)c1ccc(Cl)c(CNC2(c3cnccc3-c3ccccc3OC3CC3)CC2)c1)[C@@H](O)[C@@H](O)[C@H](O)[C@@H](O)CO (stereo partly drawn) [Compound I-380, (2S,3S,4R,5S)-N-(4-[4-chloro-3-[([1-[4-(2-cyclopropoxyphenyl)pyridin-3-yl]cyclopropyl]amino)methyl]phenyl]-5-hydroxypentyl)-2,3,4,5,6-pentahydroxyhexanamide] | 126 to 1000 |
| O=C(COC1CCN(S(=O)(=O)c2ccc(Cl)c(COC3(c4cnccc4-c4ccccc4OC4CC4)CC3)c2)CC1)NC[C@H](O)[C@@H](O)[C@H](O)[C@H](O)CO [Compound I-444, 2-({1-[4-chloro-3-({1-[4-(2-cyclopropoxyphenyl)pyridin-3-yl]cyclopropoxy}methyl)benzenesulfonyl]piperidin-4-yl}oxy)-N-[(2S,3R,4R,5R)-2,3,4,5,6-pentahydroxyhexyl]acetamide] | < 100 |
| CC(CCCCN)c1ccc(Cl)c(CNC2(c3cnccc3-c3ccccc3OC3CC3)CC2)c1 (stereo not drawn) [Compound I-242, N-[[5-(6-aminohexan-2-yl)-2-chlorophenyl]methyl]-1-[4-(2-cyclopropoxyphenyl)pyridin-3-yl]cyclopropan-1-amine] | < 100 |
| CC(OCc1cc(S(=O)(=O)N(CCCCNC(=O)N[C@@H](CO)[C@@H](O)[C@H](O)[C@H](O)CO)C(C)C)ccc1Cl)c1cnccc1-c1ccccc1OC1CC1 (stereo partly drawn) [Compound I-752, 4-chloro-3-((1-(4-(2-cyclopropoxyphenyl)pyridin-3-yl)ethoxy)methyl)-N-isopropyl-N-(4-(3-((2S,3R,4S,5R)-1,3,4,5,6-pentahydroxyhexan-2-yl)ureido)butyl)benzenesulfonamide] | < 100 |
| CN(C)CCN(C[C@H](O)[C@@H](O)[C@H](O)[C@H](O)CO)C(=O)CCCSc1ccc(Cl)c(COC2(c3cnccc3-c3ccccc3OC3CC3)CC2)c1 [Compound I-662, 4-{[4-chloro-3-({1-[4-(2-cyclopropoxyphenyl)pyridin-3-yl]cyclopropoxy}methyl)phenyl]sulfanyl}-N-[2-(dimethylamino)ethyl]-N-[(2S,3R,4R,5R)-2,3,4,5,6-pentahydroxyhexyl]butanamide] | 126 to 1000 |
| CC(C)N(C[C@H](O)[C@@H](O)[C@H](O)[C@H](O)CO)C(=O)CCCSc1ccc(Cl)c(COC2(c3cnccc3-c3ccccc3OC3CC3)CC2)c1 [Compound I-668, 4-{[4-chloro-3-({1-[4-(2-cyclopropoxyphenyl)pyridin-3-yl]cyclopropoxy}methyl)phenyl]sulfanyl}-N-[(2S,3R,4R,5R)-2,3,4,5,6-pentahydroxyhexyl]-N-(propan-2-yl)butanamide] | < 100 |
